Like-named read-outs stand apart in the source and are kept apart here.
Experiments:
[1] = test system: Bacillus pumilus strain K-1; experiment: Inhibition of bacterial growth, filter paper on inoculated agar plates; assay type: cell-based; conditions: for zone of inhibition at 1000 µM / zone of inhibition at 100 µM: Bacillus pumilus, read-out: Diameter of Inhibition; for zone of inhibition at 1000 µM: K1, 72 h
Description: Nutrient broth was prepared by mixing 8 grams of BACTO dehydrated nutrient broth per liter of distilled water. […] Samples of the nutrient broth were then inoculated with Bacillus pumilus strain K-1 culture. […]
Nutrient agar was prepared by mixing 23 grams of BACTO nutrient agar per liter of distilled water. The nutrient agar was sterilized in the same way as the nutrient broth. After it has cooled to about 45° C. 250 ml of the nutrient agar solution was aeseptically inoculated with 5 ml of the Bacillus pumilus, K-1 culture prepared in (A), above. Plates of the inoculated nutrient agar were then poured and allowed to harden.
[…] To minimize possible photocatalyzed reactions of the dyes, all preparations were performed under yellow lights and all incubations were performed in the dark.
Schleider and Schuell #740-E filter paper (12.7 mm diameter) was dipped in the dye solution, touched to the side of the beaker to removed excess dye, and placed in the center of the inoculated agar plates (prepared in (B) above). […] The plates were then examined to determine if bacterial growth had been affected by the dye-containing filter paper. […]
Control plates were prepared in which the filter paper contained methanol or a 0.2 molar aqueous solution of phenol. […]

Bacillus pumilus (K-1) = test system: Bacillus pumilus (K-1)
Description: This can be accomplished by contacting a given concentration of the dye with the cells, removing the cells from the dye solution and then comparing the optical density (at λmax) of the remaining dye solution with a control containing the original concentration of the dye. The percentage decrease in optical density indicates the percentage of dye which has been bound to the cells.
The culture was collected by centrifugation at 5,000×g. for 10 minutes, and the resultant pellet was washed several times in cold 0.05 M potassium phosphate buffer, pH 7.0. The pellet was resuspended in the buffer solution to a final optical density of 1.0 at 620 nm as measured with a Bausch and Lomb Spectronic 20.
One-tenth ml of dye solution (1 mg/ml in methanol) was added to a tube containing 5 ml of cell suspension described above and a control tube containing 0.05 M potassium phosphate buffer, pH 7.0. All tubes were well agitated using a Vari-Whirl Mixer (Will Scientific Co.) and then centrifuged at 10,000×g. for 10 minutes.
The percent binding of dye to the cells for each dye, was determined by comparison of the density at λmax of the control supernatant sample with the density at λmax of the supernatant of the cell sample.

[2] = not told
Description: If a published reduction potential is not available, suitable techniques for measuring reduction potential are available and can be used. […] This technique involves measurement at 20° C., of an approximately 10^-4 molar solution of the dye in an electrolyte, such as methanol which is 0.05 molar in lithium chloride, using a dropping mercury electrode. The potential values are reported by reference to a silver-silver chloride electrode in a saturated solution of potassium chloride at 20° C.

[3] = Tables V and VI, 10^-3 molar, three days

Compound | zone of inhibition at 1000 µM [1, 3] | Diameter of Inhibition [1, 3] | other results
CCN1C(=CC=Cc2sc3c(OC)cccc3[n+]2CC)Sc2c(OC)cccc21 [17,7,7'-dimethoxy] | 14.5 mm | – | –
CCN1C(=CC=Cc2oc3cc(S(=O)(=O)O)ccc3[n+]2CC)Oc2cc(S(=O)(=O)[O-])ccc21 [Dye 8] | – | – | Activity Rating [1]: 0; Diameter of Inhibition ([1]; Table IX, 10^-3 M): None; % Bound (Bacillus pumilus (K-1)): 2.6%; reduction potential (ER) [2]: -1.26 volts
CCN1C(=Cc2sc3ccccc3[n+]2C)C=Cc2ccccc21 [Dye 14] | – | – | Activity Rating [1]: 11; zone of inhibition at 100 µM ([1]; K1, Table II, 10^-4 molar, 26° C., forty-eight hours): 15 mm; zone of inhibition at 100 µM ([1]; K1, Table IX, 10^-4 M): 15 mm; % Bound (Bacillus pumilus (K-1)): 58.3%; ER [2]: -1.08; reduction potential (ER) [2]: -1.08 volts
CCN1C(=CC=Cc2sc3ccc(OC(C)=O)cc3[n+]2CC)Sc2ccc(OC(C)=O)cc21 [17,5,5'-diacetoxy] | 15 mm | – | –
CCN1C(=CC=Cc2oc3cc(-c4ccccc4)ccc3[n+]2CC)Oc2cc(-c3ccccc3)ccc21 [7,6,6'-diphenyl] | – | None | –
CCN1C(=CC=Cc2oc3c(-c4ccccc4)cccc3[n+]2CC)Oc2c(-c3ccccc3)cccc21 [7,7,7'-diphenyl] | – | None | –
CCN1C(=Cc2ccc3ccccc3[n+]2CC)Sc2cc([N+](=O)[O-])ccc21 [Dye 28] | – | – | Activity Rating [1]: 0; Diameter of Inhibition ([1]; Table II, 10^-4 molar, 26° C., forty-eight hours): None; Diameter of Inhibition ([1]; Table IX, 10^-4 M): None; % Bound (Bacillus pumilus (K-1)): 57.3%; reduction potential (ER) [2]: -0.60 volts
CN1C(=CC=Cc2oc3cc([N+](=O)[O-])ccc3[n+]2C)Oc2cc([N+](=O)[O-])ccc21 [7,6,6'-dinitro-N,N'-methyl] | – | None | –
CCN1C(=CC=Cc2sc3ccc(OC)cc3[n+]2CC)Sc2ccc(OC)cc21 [17,5,5'-dimethoxy] | 14.5 mm | – | –
CN1C(=CC=Cc2sc3cc(N)ccc3[n+]2C)Sc2cc(N)ccc21 [17,6,6'-diamino-N,N'-dimethyl] | – | None | –
CN1C(=CC=Cc2oc3ccc(C(=O)O)cc3[n+]2C)Oc2ccc(C(=O)O)cc21 [7,5,5'-dicarboxy-N,N'-methyl] | – | None | –
CCOc1ccc2c(c1)N(CC)C(=CC=Cc1oc3ccc(OCC)cc3[n+]1CC)O2 [7,5,5'-diethoxy] | 14 mm | – | –
CCOc1ccc2c(c1)OC(=CC=Cc1oc3cc(OCC)ccc3[n+]1CC)N2CC [7,6,6'-diethoxy] | 16 mm | – | –
CCOc1ccc2c(c1)SC(=CC=Cc1sc3cc(OCC)ccc3[n+]1CC)N2CC [17,6,6'-diethoxy] | 15 mm | – | –
CN1C(=CC=Cc2oc3ccc([N+](=O)[O-])cc3[n+]2C)Oc2ccc([N+](=O)[O-])cc21 [7,5,5'-dinitro-N,N'-methyl] | – | None | –
CCN1C(=CC=Cc2sc3cc(Cl)ccc3[n+]2CC)Sc2cc(Cl)ccc21 [17,6,6'-dichloro] | 14 mm | – | ER [2]: -.87
CCN1C(=CC=Cc2sc3c(N(C)C)cccc3[n+]2CC)Sc2c(N(C)C)cccc21 [17,7,7'-dimethylamino] | 14 mm | – | –
CCN1C(=CC=Cc2sc3cc(OC)c(OC)cc3[n+]2CC)Sc2cc(OC)c(OC)cc21 [17,5,5',6,6'-tetramethoxy] | – | None | –
CCN1C(=CC=Cc2oc3cccc(O)c3[n+]2CC)Oc2cccc(O)c21 [7,4,4'-dihydroxy] | 13 mm | – | –
CCN1C(=CC=Cc2oc3ccc(OC(C)=O)cc3[n+]2CC)Oc2ccc(OC(C)=O)cc21 [7,5,5'-diacetoxy] | 30.5 mm | – | ER [2]: -1.18
CN1C(=CC=Cc2sc3cc(C#N)ccc3[n+]2C)Sc2cc(C#N)ccc21 [17,6,6'-dicyano-N,N'-dimethyl] | – | None | –
CCN1C(=CC=Cc2sc3cc(S(=O)(=O)O)ccc3[n+]2CC)Sc2cc(S(=O)(=O)[O-])ccc21 [17,6,6'-disulfo] | – | None | –
CCN1C(=CC=Cc2sc3cc(OC)ccc3[n+]2CC)Sc2cc(OC)ccc21 [17,6,6'-dimethoxy] | 15 mm | – | –
CCN1C(=CC=Cc2sc3cc(OC(C)=O)ccc3[n+]2CC)Sc2cc(OC(C)=O)ccc21 [17,6,6'-diacetoxy] | 17 mm | – | –

— patent US4232121A, “Process for selecting methine dyes which inhibit cell growth” (Eastman Kodak Company, priority 1978, dated 1980)
